PubChem BioAssay AID248 (DTP/NCI, 2004)
“And” between values parts separate entries of the source, which are not always exact repeats. Identical values can stand only once. Toxic doses and inconclusive results are not listed.

Tested on: L1210 leukemia ip in BDF1 mice, survival T/C
Assay: NCI In Vivo Anticancer Drug Screen. Data for tumor model L1210 Leukemia (intraperitoneal) in B6D2F1 (BDF1) mice
Conditions: endpoint: mean survival time, higher = longer survival
In short: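 Transplanted-tumor mice were given test agent; controls received vehicle only. Survival readings from the two groups were divided (treated over control).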

[1] = dose: 100.0 mg/kg/injection, schedule: Q01DX009 (ip), vehicle: Klucel (hydroxypropylcellulose) (HPC)
[2] = dose: 100.0 mg/kg/injection, schedule: Q04DX003 (ip), vehicle: saline with Tween-80
[3] = dose: 200.0 mg/kg/injection, schedule: Q01DX009 (ip), vehicle: Klucel (hydroxypropylcellulose) (HPC)
[4] = dose: 200.0 mg/kg/injection, schedule: Q04DX003 (ip), vehicle: saline with Tween-80
[5] = dose: 100.0 mg/kg/injection, schedule: Q04DX003 (ip), vehicle: Klucel (hydroxypropylcellulose) (HPC)
[6] = dose: 200.0 mg/kg/injection, schedule: Q04DX003 (ip), vehicle: Klucel (hydroxypropylcellulose) (HPC)
[7] = dose: 400.0 mg/kg/injection, schedule: Q01DX009 (ip), vehicle: Klucel (hydroxypropylcellulose) (HPC)
[8] = dose: 400.0 mg/kg/injection, schedule: Q04DX003 (ip), vehicle: Klucel (hydroxypropylcellulose) (HPC)
[9] = dose: 400.0 mg/kg/injection, schedule: Q04DX003 (ip), vehicle: saline with Tween-80
[10] = dose: 100.0 mg/kg/injection, schedule: Q01DX009 (ip), vehicle: saline with Tween-80
[11] = dose: 200.0 mg/kg/injection, schedule: Q01DX009 (ip), vehicle: saline with Tween-80
[12] = dose: 400.0 mg/kg/injection, schedule: Q01DX009 (ip), vehicle: saline with Tween-80
[13] = dose: 100.0 mg/kg/injection, schedule: Q01DX001 (ip), vehicle: saline

`C[NH-].C[NH-].[Cl][Pt+2][Cl]` was tested, and the T/C (dose: 0.38 mg/kg/injection, schedule: Q03HX024 (ip), vehicle: water) was 111 % of control, the T/C (dose: 0.75 mg/kg/injection, schedule: Q03HX024 (ip), vehicle: water) was 109 % of control and the T/C (dose: 1.0 mg/kg/injection, schedule: Q01DX009 (ip), vehicle: other) was 108 % of control. For the same compound, the T/C (dose: 1.5 mg/kg/injection, schedule: Q03HX024 (ip), vehicle: water) was 107 % of control, the T/C (dose: 1.56 mg/kg/injection, schedule: Q03HX008 (ip), vehicle: water) was 106 % of control and the T/C (dose: 2.0 mg/kg/injection, schedule: Q01DX001 (ip), vehicle: other) was 108 % of control. The T/C (dose: 2.0 mg/kg/injection, schedule: Q01DX009 (ip), vehicle: other) was 122 % of control, the T/C (dose: 2.5 mg/kg/injection, schedule: Q01DX009 (ip), vehicle: water) was 110 % of control and the T/C (dose: 2.6 mg/kg/injection, schedule: Q01DX009 (ip), vehicle: saline with Tween-80) was 113 % of control. The T/C (dose: 3.0 mg/kg/injection, schedule: Q04DX003 (ip), vehicle: water) was 116 % of control, the T/C (dose: 3.13 mg/kg/injection, schedule: Q03HX008 (ip), vehicle: water) was 115 % of control and the T/C (dose: 4.0 mg/kg/injection, schedule: Q01DX001 (ip), vehicle: other) was 95 % of control. The T/C (dose: 4.0 mg/kg/injection, schedule: Q01DX009 (ip), vehicle: other) was 116 % of control, the T/C (dose: 4.0 mg/kg/injection, schedule: Q01DX009 (ip), vehicle: saline with Tween-80) was 124 % of control and the T/C (dose: 5.0 mg/kg/injection, schedule: Q04DX003 (ip), vehicle: saline with Tween-80) was 115 % of control and 120 % of control. For the same compound, the T/C (dose: 6.0 mg/kg/injection, schedule: Q04DX003 (ip), vehicle: water) was 123 % of control, the T/C (dose: 8.0 mg/kg/injection, schedule: Q01DX001 (ip), vehicle: other) was 105 % of control and the T/C (dose: 8.0 mg/kg/injection, schedule: Q04DX003 (ip), vehicle: saline with Tween-80) was 123 % of control. For the same compound, the T/C (dose: 9.0 mg/kg/injection, schedule: Q01DX009 (ip), vehicle: saline with Tween-80) was 108 % of control, the T/C (dose: 12.0 mg/kg/injection, schedule: Q04DX003 (ip), vehicle: saline with Tween-80) was 164 % of control and the T/C (dose: 12.5 mg/kg/injection, schedule: Q01DX009 (ip), vehicle: saline with Tween-80) was 98 % of control and 90 % of control. For the same compound, the T/C (dose: 16.0 mg/kg/injection, schedule: Q01DX001 (ip), vehicle: other) was 123 % of control, the T/C (dose: 16.0 mg/kg/injection, schedule: Q01DX009 (ip), vehicle: other) was 90 % of control and the T/C (dose: 25.0 mg/kg/injection, schedule: Q01DX001 (ip), vehicle: water) was 120 % of control. The T/C (dose: 32.0 mg/kg/injection, schedule: Q01DX001 (ip), vehicle: other) was 119 % of control and the T/C (dose: 50.0 mg/kg/injection, schedule: Q04DX003 (ip), vehicle: saline with Tween-80) was 88 % of control.
For `CC(C)CCOC(=O)C1OC1(C)c1ccccc1` (configuration not stated), the T/C (dose: 100.0 mg/kg/injection, schedule: Q04DX002 (ip), vehicle: saline) was 101 % of control, the T/C (dose: 200.0 mg/kg/injection, schedule: Q04DX002 (ip), vehicle: saline) was 93 % of control and the T/C (dose: 400.0 mg/kg/injection, schedule: Q04DX002 (ip), vehicle: saline) was 112 % of control.
`CC(=O)OCc1c(O)c2c(c(O)c1COC(C)=O)C(=O)C=CC2=O` was tested, and the T/C (dose: 2.0 mg/kg/injection, schedule: Q01DX009 (ip), vehicle: saline) was 96 % of control, the T/C (dose: 4.0 mg/kg/injection, schedule: Q01DX009 (ip), vehicle: saline) was 96 % of control and the T/C (dose: 8.0 mg/kg/injection, schedule: Q01DX009 (ip), vehicle: saline) was 88 % of control. The T/C (dose: 16.0 mg/kg/injection, schedule: Q01DX009 (ip), vehicle: saline) was 91 % of control.
With `O=C1/C(=C/c2cccnc2)CCc2ccccc21` the T/C (dose: 25.0 mg/kg/injection, schedule: Q01DX009 (ip), vehicle: Klucel (hydroxypropylcellulose) (HPC)) was 98 % of control, the T/C (dose: 50.0 mg/kg/injection, schedule: Q01DX009 (ip), vehicle: Klucel (hydroxypropylcellulose) (HPC)) was 106 % of control and the T/C [1] was 97 % of control. For the same compound, the T/C [2] was 104 % of control, the T/C [3] was 112 % of control and the T/C [4] was 97 % of control.
`CCOC(=O)c1scnc1C` was tested, and the T/C [1] was 89 % of control, the T/C [5] was 95 % of control and the T/C [3] was 95 % of control. The T/C [6] was 95 % of control, the T/C [7] was 92 % of control and the T/C [8] was 95 % of control.
For `CCCCCOB(OCCCCC)OCCCCC`, the T/C (dose: 50.0 mg/kg/injection, schedule: Q01DX001 (ip), vehicle: carboxymethylcellulose (CMC)) was 93 % of control, the T/C (dose: 100.0 mg/kg/injection, schedule: Q01DX001 (ip), vehicle: carboxymethylcellulose (CMC)) was 95 % of control and the T/C (dose: 200.0 mg/kg/injection, schedule: Q01DX001 (ip), vehicle: carboxymethylcellulose (CMC)) was 93 % of control. For the same compound, the T/C (dose: 400.0 mg/kg/injection, schedule: Q01DX001 (ip), vehicle: carboxymethylcellulose (CMC)) was 98 % of control.
`CCOC(=O)CC1c2nc3ccccc3cc2CN1C(=O)CCOCc1ccccc1` (configuration not stated) was tested, and the T/C (dose: 10.0 mg/kg/injection, schedule: Q04DX003 (ip), vehicle: alcohol) was 92 % of control, the T/C (dose: 20.0 mg/kg/injection, schedule: Q04DX003 (ip), vehicle: alcohol) was 92 % of control and the T/C (dose: 40.0 mg/kg/injection, schedule: Q04DX003 (ip), vehicle: alcohol) was 100 % of control. The T/C (dose: 80.0 mg/kg/injection, schedule: Q04DX003 (ip), vehicle: alcohol) was 96 % of control and the T/C (dose: 160.0 mg/kg/injection, schedule: Q04DX003 (ip), vehicle: alcohol) was 89 % of control.
`Cc1cc(=O)n(C)c2c(C)cccc12` was tested, and the T/C [2] was 101 % of control, the T/C [4] was 98 % of control and the T/C [9] was 98 % of control.
`COc1cccc2c1OC1(N3CCOCC3)CCCCC1C2C[N+](=O)[O-]` (configuration not stated) was tested, and the T/C [1] was 97 % of control, the T/C [3] was 105 % of control and the T/C [7] was 94 % of control.
For `CC(=O)OC12CCCC(=O)C1C1CC/C=C\CCC12` (configuration not stated), the T/C (dose: 100.0 mg/kg/injection, schedule: Q01DX001 (ip), vehicle: Klucel (hydroxypropylcellulose) (HPC)) was 111 % of control, the T/C [1] was 98 % of control and the T/C [5] was 95 % of control. The T/C (dose: 200.0 mg/kg/injection, schedule: Q01DX001 (ip), vehicle: Klucel (hydroxypropylcellulose) (HPC)) was 108 % of control, the T/C [3] was 98 % of control and the T/C [6] was 98 % of control. For the same compound, the T/C (dose: 400.0 mg/kg/injection, schedule: Q01DX001 (ip), vehicle: Klucel (hydroxypropylcellulose) (HPC)) was 102 % of control, the T/C [7] was 96 % of control and the T/C [8] was 95 % of control.
`Cc1ccc(-c2nc(-c3nccc4ccccc34)oc2-c2ccccc2)cc1` was tested, and the T/C [1] was 103 % of control, the T/C [3] was 95 % of control and the T/C [7] was 95 % of control.
With `CN(C)C(=O)c1ccc(O)cc1` the T/C [5] was 104 % of control, the T/C [6] was 92 % of control and the T/C [8] was 97 % of control.
In the case of `O=S(=O)(OCC1CO1)c1ccccc1` (configuration not stated), the T/C (dose: 50.0 mg/kg/injection, schedule: Q01DX006 (ip), vehicle: saline with Tween-80) was 103 % of control, the T/C (dose: 100.0 mg/kg/injection, schedule: Q01DX006 (ip), vehicle: saline with Tween-80) was 106 % of control and the T/C (dose: 200.0 mg/kg/injection, schedule: Q01DX006 (ip), vehicle: saline with Tween-80) was 110 % of control.
With `CC(C)c1ccc2cc(C(C)C)ccc2c1` the T/C [10] was 107 % of control, the T/C [11] was 92 % of control and the T/C [12] was 92 % of control.
With `O=C1c2ccccc2-c2cc(Br)c(NC(Cl)Cl)cc21` the T/C [2] was 94 % of control, the T/C [4] was 93 % of control and the T/C [9] was 94 % of control.
In the case of `[Co+2].[NH-]c1ccccc1C(=O)O.[NH-]c1ccccc1C(=O)O`, the T/C [10] was 94 % of control, the T/C [11] was 93 % of control and the T/C [12] was 86 % of control.
`NCCCNCCO` was tested, and the T/C [13] was 102 % of control, the T/C (dose: 200.0 mg/kg/injection, schedule: Q01DX001 (ip), vehicle: saline) was 111 % of control and the T/C (dose: 400.0 mg/kg/injection, schedule: Q01DX001 (ip), vehicle: saline) was 105 % of control.
`CCOC(=O)/C(=C/c1ccc(C)cc1)P(=O)(OCC)OCC` was tested, and the T/C (dose: 50.0 mg/kg/injection, schedule: Q01DX001 (ip), vehicle: saline) was 101 % of control and the T/C [13] was 101 % of control.
In the case of `COc1ccc(CCNCC(O)CSc2cccc(C)c2)cc1OC` (configuration not stated), the T/C (dose: 75.0 mg/kg/injection, schedule: Q01DX001 (ip), vehicle: saline) was 101 % of control and the T/C (dose: 150.0 mg/kg/injection, schedule: Q01DX001 (ip), vehicle: saline) was 95 % of control.
In the case of `COc1ccc(S(=O)(=O)F)cc1NC(=O)NCc1ccc([N+](=O)[O-])cc1`, the T/C [1] was 103 % of control, the T/C [3] was 110 % of control and the T/C [7] was 108 % of control.
